Where a name gives a salt, the structure may show the parent alone.
Legend:
E. aerogenes = assay: Hydrolysis on Columbia agar with ferric ammonium citrate; assay type: cell-based; set-up: β-Riboside (hydrolysis): key to the marks not given beside the values
Procedure: (§1) The chromogenic β-D-ribofuranoside substrate was added to Columbia agar at a substrate concentration of 300 mg/l. Ferric ammonium citrate was included at 500 mg/l. All ingredients were autoclaved at 116° C. for 20 minutes to ensure sterilisation. Agar plates were then prepared in 90 mm petri dishes. The substrate caused a yellow colouration of the agar.
(§2) For each strain tested, a bacterial suspension was prepared in sterile deionised water at an inoculum of approximately 1.5×10^8 colony forming units per ml. This was achieved using a densitometer. 1 μl of each bacterial suspension was then inoculated onto each plate using a multipoint inoculator. Strains were inoculated in parallel onto Columbia agar containing ferric ammonium citrate with no substrate (negative control).
(§3) After 18 hours incubation, strains were examined visually for the presence of colour. Any strains producing a black colouration on substrate containing media but not on the negative control plates were deemed to be hydrolysing the substrate.

K. pneumoniae = assay: as above; assay type: cell-based; set-up: β-Riboside (hydrolysis): key to the marks not given beside the values
Procedure: as §1, §2, §3

Measured: β-Riboside (hydrolysis)

O=c1cc(-c2ccc(OC3OC(CO)C(O)C3O)c(O)c2)oc2ccccc12 [DHF-riboside, 3′,4′-Dihydroxyflavone-4′-β-D-ribofuranoside sodium salt]
++: E. aerogenes; E. aerogenes EAE 1 | E. aerogenes; E. aerogenes NCIMB 10102 | K. pneumoniae; K. pneumoniae KPN 2 | K. pneumoniae; K. pneumoniae KPN 3 | K. pneumoniae; K. pneumoniae KPN 4 | K. pneumoniae; K. pneumoniae NCTC 10896
